Laboratory results: publication PMC12612973, “Inhibition of Human Amylin Aggregation: In Silico and In Vitro Studies” (ACS Omega, 2025)
“And” between values parts separate entries of the source, which are not always exact repeats. Identical values can stand only once.

Assays:
human amylin (hIAPP) [1] = biological target: T1, human amylin (hIAPP) (Homo sapiens, UniProt P10997); test: Thioflavin T (ThT) fluorescence assay of amylin aggregation; type: biochemical; settings: for ThT inhibition % (mean ± SEM): compound 10 μM, amylin 15 μM, 36 h incubation, 3 trials; for inhibition at 10 µM: read-out: ThT inhibition % (mean ± SEM), compound 10 μM, amylin 15 μM, 36 h incubation, 3 trials
T1 construct: purchased Bachem USA
T1 sequence (P10997 34-70 limits assumed): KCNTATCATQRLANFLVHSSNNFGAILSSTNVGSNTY
Experimental: A stock solution of amylin (1 mM) (purchased from Bachem USA), peptide sequence: […] amide (with disulfide bond between Cys2 and Cys7), was prepared in 100% hexafluoroisopropyl alcohol (HFIP) (purchased from Sigma-Aldrich) and stored at −20 °C. , Aliquots of amylin peptide were filtered through a 0.22 μm filter from the stock solution and freeze-dried. For kinetic experiments, 15 μM of amylin was prepared in 50 mM Tris-HCl buffer (pH 7.4), as investigated in previous studies by Chaari et al., , Samples of amylin were prepared in the presence or absence of inhibitors. Each compound was dissolved in DMSO and further diluted with the buffer used to solubilize the amylin. The final mixture contained 15 μM amylin, 10 μM of the test compound, 2% DMSO or 15 μM amylin, and 2% DMSO without the compound (negative control). Also 15 μM amylin, 10 μM of oleuropein aglycone and 2% DMSO was used as a positive control. The prepared solutions were incubated under physiological conditions (pH 7.4 and 37 °C) for amylin aggregation. Samples were incubated for 36 h to test for amylin aggregation, and measurements were conducted at different time points.
Amylin aggregation was monitored by characteristic changes in Thioflavin T (ThT) fluorescence intensity. A ThT stock solution (15 μM) was prepared in deionized water at pH 7.4. The amylin samples were mixed with the ThT solution and allowed to incubate. ThT fluorescence was measured using the PerkinElmer model LS 55 fluorescence spectrophotometer (PerkinElmer, USA), with an excitation wavelength of 440 nm and an emission wavelength of 480 nm. ,− The emission and excitation slits were set to 5 nm, and a 1 cm cuvette was used for all experiments. Nonspecific background fluorescence was subtracted from the samples using appropriate blanks in the absence of proteins. Each experiment was performed in triplicate.

human amylin (hIAPP) [2] = biological target: T1, human amylin (hIAPP); test: Kinetic analysis of amylin aggregation (ThT, two-step autocatalytic aggregation model); type: biochemical; settings: mean ± S.D.; for t 0 (time point when the aggregation starts): 10% of highest ThT fluorescence; for t 1/2 (aggregation halftime): 50% of highest ThT fluorescence; for t 1 (aggregation endpoint): 90% of highest ThT fluorescence; for k / k e (elongation constant) / k n (nucleation constant) / ρ (ratio of kn to k): ThT data, autocatalytic aggregation model
Experimental: Kinetic analysis was performed according to the model of autocatalytic aggregation. According to Sabaté et al., aggregation is a two-step process, comprising nucleation (described by the k n constant) and fibrillation phases (represented by the k e constant). Two constants (k n and k e) are calculated using the eq : 5 f=ρ{e^[(1+ρ)kt]−1}/{1+ρe^[(1+ρ)kt]} where k = k e a (where a represents the initial concentration of the aggregating peptide), f stands for a fraction of the fibrillar form in the system, and ρ denotes the dimensionless ratio of k n to k. The parameters k and ρ were calculated first, then k n and k e.
Data were normalized as a fraction of the highest fluorescence from the three trials and fitted into the model of autocatalytic aggregation. The same procedure was repeated for the remaining trials. The second calculation aimed to find the time parameters of the aggregation process: t 0 (time point when the aggregation starts), t 1/2 (aggregation halftime), and t 1 (aggregation endpoint). t 0, t 1/2, and t 1 were calculated as 10%, 50%, and 90% of the highest fluorescence measurements from the three trials, respectively. All calculations were performed using GraphPad Prism 9.5.1, Statistica 13.3.721.1, and Microsoft Excel 2304.

CC(C)(C)c1cccc(CNCC(O)CNCCC(c2ccccc2)c2ccccc2)c1 (stereo not drawn) [Compound 18]
ThT inhibition % (mean ± SEM) (human amylin (hIAPP) [1]): 91.5 ± 0.4% | inhibition at 10 µM (human amylin (hIAPP) [1]): > 88% | t 0 (time point when the aggregation starts) (human amylin (hIAPP) [2]): 9.31 ± 0.72 h | t 1/2 (aggregation halftime) (human amylin (hIAPP) [2]): 19.02 ± 0.57 h | t 1 (aggregation endpoint) (human amylin (hIAPP) [2]): 29.29 ± 0.36 h | k (human amylin (hIAPP) [2]): 0.2087 ± 0.0084 h^–1 | k e (elongation constant) (human amylin (hIAPP) [2]): 13913 M^–1h^–1 and 13913 ± 560 M^–1h^–1 | k n (nucleation constant) (human amylin (hIAPP) [2]): 0.004 h^–1 and 0.0039 ± 0.0009 h^–1 | ρ (ratio of kn to k) (human amylin (hIAPP) [2]): 0.0186 ± 0.0051

CC(C)(C)c1cccc(CNCC(O)CCNCCC(c2ccccc2)c2ccccc2)c1 (stereo not drawn) [Compound 22]
ThT inhibition % (mean ± SEM) (human amylin (hIAPP) [1]): 89.3 ± 0.3% | inhibition at 10 µM (human amylin (hIAPP) [1]): > 88% | t 0 (time point when the aggregation starts) (human amylin (hIAPP) [2]): 4.36 ± 0.16 h | t 1/2 (aggregation halftime) (human amylin (hIAPP) [2]): 11.87 ± 1.02 h | t 1 (aggregation endpoint) (human amylin (hIAPP) [2]): 20.69 ± 2.27 h | k (human amylin (hIAPP) [2]): 0.2326 ± 0.0366 h^–1 | k e (elongation constant) (human amylin (hIAPP) [2]): 15505 M^–1h^–1 and 15505 ± 2437 M^–1h^–1 | k n (nucleation constant) (human amylin (hIAPP) [2]): 0.014 h^–1 and 0.0142 ± 0.0006 h^–1 | ρ (ratio of kn to k) (human amylin (hIAPP) [2]): 0.0624 ± 0.0126
